Source: ChEMBL document CHEMBL1201862, “PubChem BioAssay data set” (2004)
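Growth conditions: 96-well plates. Treatment: test compound, 48 hours, 5 concentrations. Analysis: linear interpolation between bracketing concentrations; unreached endpoints set to highest concentration. GI50 = concentration required for 50% inhibition of growth.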 Activity calls are given as the source filed them. Cut-off read from the data, not from the text of the source: active = GI50 up to about 1.1 µM and inactive = higher.

Legend:
Test in all cases: NCI tumour cell line growth inhibition, 48 h
[1] = tested on: 786-0
[2] = tested on: A498
[3] = tested on: A549
[4] = tested on: ACHN
[5] = tested on: BT-549
[6] = tested on: CAKI-1
[7] = tested on: CCRF-CEM
[8] = tested on: COLO 205
[9] = tested on: DU-145
[10] = tested on: EKVX
[11] = tested on: HCC 2998
[12] = tested on: HCT-116
[13] = tested on: HCT-15
[14] = tested on: HL-60
[15] = tested on: HOP-62
[16] = tested on: HT-29
[17] = tested on: Hs-578T
[18] = tested on: IGROV-1
[19] = tested on: K562
[20] = tested on: KM12
[21] = tested on: LOX IMVI
[22] = tested on: M14
[23] = tested on: MCF7
[24] = tested on: MDA-MB-435
[25] = tested on: MDA-N
[26] = tested on: MOLT-4
[27] = tested on: Malme-3M
[28] = tested on: NCI-H23
[29] = tested on: NCI-H460
[30] = tested on: NCI-H522
[31] = tested on: NCI/ADR-RES
[32] = tested on: OVCAR-3
[33] = tested on: OVCAR-4
[34] = tested on: OVCAR-5
[35] = tested on: OVCAR-8
[36] = tested on: PC-3
[37] = tested on: RPMI-8226
[38] = tested on: SF-268
[39] = tested on: SF-295
[40] = tested on: SF-539
[41] = tested on: SK-MEL-28
[42] = tested on: SK-MEL-2
[43] = tested on: SK-MEL-5
[44] = tested on: SK-OV-3
[45] = tested on: SNB-19
[46] = tested on: SR
[47] = tested on: SW-620
[48] = tested on: U-251
[49] = tested on: UACC-257
[50] = tested on: UACC-62
[51] = tested on: UO-31
[52] = tested on: HOP-92
[53] = tested on: MDA-MB-231
[54] = tested on: NCI-H226
[55] = tested on: RXF 393
[56] = tested on: SN12C
[57] = tested on: SNB-75
[58] = tested on: T47D
[59] = tested on: TK-10

For O=c1oc2ccc3ccccc3c2cc1-c1nnc(-c2ccc([N+](=O)[O-])cc2)[nH]1, the GI50 [1] was 41.1 µM (inactive), the GI50 [2] was 53.6 µM (inactive) and the GI50 [3] was > 100 µM (inactive). For the same molecule, the GI50 [4] was 42.2 µM (inactive), the GI50 [5] was 21.3 µM (inactive) and the GI50 [6] was > 100 µM (inactive). For the same molecule, the GI50 [7] was > 100 µM (inactive), the GI50 [8] was > 100 µM (inactive) and the GI50 [9] was 87.3 µM (inactive). For the same molecule, the GI50 [10] was 20.7 µM (inactive), the GI50 [11] was > 100 µM (inactive) and the GI50 [12] was > 100 µM (inactive). For the same molecule, the GI50 [13] was greater than 100 µM, the GI50 [14] was > 100 µM (inactive) and the GI50 [15] was 17.2 µM (inactive). The GI50 [16] was > 100 µM (inactive), the GI50 [17] was 11.5 µM (inactive) and the GI50 [18] was 0.184 µM (active). The GI50 [19] was > 100 µM (inactive), the GI50 [20] was > 100 µM (inactive) and the GI50 [21] was 38.8 µM (inactive). The GI50 [22] was > 100 µM (inactive), the GI50 [23] was > 100 µM (inactive) and the GI50 [24] was > 100 µM (inactive). The GI50 [25] was > 100 µM (inactive), the GI50 [26] was 71.4 µM (inactive) and the GI50 [27] was 91.2 µM (inactive). For the same molecule, the GI50 [28] was 17.7 µM (inactive), the GI50 [29] was > 100 µM (inactive) and the GI50 [30] was 92 µM (inactive). For the same molecule, the GI50 [31] was > 100 µM (inactive), the GI50 [32] was > 100 µM (inactive) and the GI50 [33] was > 100 µM (inactive). The GI50 [34] was > 100 µM (inactive), the GI50 [35] was 21.4 µM (inactive) and the GI50 [36] was > 100 µM (inactive). For the same molecule, the GI50 [37] was > 100 µM (inactive), the GI50 [38] was 0.0807 µM (active) and the GI50 [39] was 36.6 µM (inactive). The GI50 [40] was 18.7 µM (inactive), the GI50 [41] was > 100 µM (inactive) and the GI50 [42] was 44.6 µM (inactive). The GI50 [43] was > 100 µM (inactive), the GI50 [44] was 23.6 µM (inactive) and the GI50 [45] was 32.8 µM (inactive). The GI50 [46] was > 100 µM (inactive), the GI50 [47] was > 100 µM (inactive) and the GI50 [48] was 29.6 µM (inactive). The GI50 [49] was > 100 µM (inactive), the GI50 [50] was > 100 µM (inactive) and the GI50 [51] was 53.1 µM (inactive).
CCOC(=O)C(Cl)(NC(=O)OCc1ccccc1)C(F)(F)F (stereo unspecified) was tested, and the GI50 [1] was > 100 µM (inactive), the GI50 [2] was > 100 µM (inactive) and the GI50 [3] was > 100 µM (inactive). The GI50 [4] was > 100 µM (inactive), the GI50 [6] was > 100 µM (inactive) and the GI50 [7] was > 100 µM (inactive). The GI50 [8] was > 100 µM (inactive), the GI50 [9] was > 100 µM (inactive) and the GI50 [10] was > 100 µM (inactive). For the same molecule, the GI50 [11] was > 100 µM (inactive), the GI50 [12] was > 100 µM (inactive) and the GI50 [13] was greater than 100 µM. For the same molecule, the GI50 [14] was > 100 µM (inactive), the GI50 [15] was > 100 µM (inactive) and the GI50 [52] was > 100 µM (inactive). The GI50 [16] was > 100 µM (inactive), the GI50 [17] was > 100 µM (inactive) and the GI50 [18] was > 100 µM (inactive). For the same molecule, the GI50 [19] was > 100 µM (inactive), the GI50 [20] was > 100 µM (inactive) and the GI50 [21] was > 100 µM (inactive). The GI50 [22] was > 100 µM (inactive), the GI50 [23] was > 100 µM (inactive) and the GI50 [53] was > 100 µM (inactive). For the same molecule, the GI50 [24] was > 100 µM (inactive), the GI50 [25] was > 100 µM (inactive) and the GI50 [26] was > 100 µM (inactive). For the same molecule, the GI50 [27] was > 100 µM (inactive), the GI50 [54] was > 100 µM (inactive) and the GI50 [28] was > 100 µM (inactive). The GI50 [30] was > 100 µM (inactive), the GI50 [31] was > 100 µM (inactive) and the GI50 [32] was > 100 µM (inactive). For the same molecule, the GI50 [33] was > 100 µM (inactive), the GI50 [34] was > 100 µM (inactive) and the GI50 [35] was > 100 µM (inactive). The GI50 [36] was > 100 µM (inactive), the GI50 [37] was > 100 µM (inactive) and the GI50 [55] was > 100 µM (inactive). For the same molecule, the GI50 [38] was > 100 µM (inactive), the GI50 [39] was > 100 µM (inactive) and the GI50 [40] was > 100 µM (inactive). For the same molecule, the GI50 [41] was > 100 µM (inactive), the GI50 [42] was > 100 µM (inactive) and the GI50 [43] was > 100 µM (inactive). The GI50 [44] was > 100 µM (inactive), the GI50 [56] was > 100 µM (inactive) and the GI50 [45] was > 100 µM (inactive). For the same molecule, the GI50 [57] was > 100 µM (inactive), the GI50 [47] was > 100 µM (inactive) and the GI50 [58] was > 100 µM (inactive). For the same molecule, the GI50 [59] was > 100 µM (inactive), the GI50 [48] was > 100 µM (inactive) and the GI50 [49] was > 100 µM (inactive). For the same molecule, the GI50 [51] was > 100 µM (inactive).
For CC(C(=O)O)c1ccc(-c2ccccc2)c(F)c1 (stereo unspecified) [TARENFLURBIL], the GI50 [3] was > 100 µM (inactive), the GI50 [5] was > 100 µM (inactive) and the GI50 [10] was > 100 µM (inactive). The GI50 [13] was greater than 100 µM, the GI50 [14] was > 100 µM (inactive) and the GI50 [15] was > 100 µM (inactive). For the same molecule, the GI50 [17] was > 100 µM (inactive), the GI50 [23] was > 100 µM (inactive) and the GI50 [24] was > 100 µM (inactive). The GI50 [25] was > 100 µM (inactive), the GI50 [27] was > 100 µM (inactive) and the GI50 [54] was > 100 µM (inactive). The GI50 [30] was > 100 µM (inactive), the GI50 [38] was > 100 µM (inactive) and the GI50 [40] was > 100 µM (inactive). For the same molecule, the GI50 [41] was > 100 µM (inactive), the GI50 [42] was > 100 µM (inactive) and the GI50 [56] was > 100 µM (inactive). For the same molecule, the GI50 [57] was > 100 µM (inactive) and the GI50 [51] was > 100 µM (inactive).
